pIC50: −log10 of the molar value. Where only a bound is given, the exact number is not on record here.

Chain of Sodium channel protein type 10 subunit alpha (Q9Y5Y9 whole entry): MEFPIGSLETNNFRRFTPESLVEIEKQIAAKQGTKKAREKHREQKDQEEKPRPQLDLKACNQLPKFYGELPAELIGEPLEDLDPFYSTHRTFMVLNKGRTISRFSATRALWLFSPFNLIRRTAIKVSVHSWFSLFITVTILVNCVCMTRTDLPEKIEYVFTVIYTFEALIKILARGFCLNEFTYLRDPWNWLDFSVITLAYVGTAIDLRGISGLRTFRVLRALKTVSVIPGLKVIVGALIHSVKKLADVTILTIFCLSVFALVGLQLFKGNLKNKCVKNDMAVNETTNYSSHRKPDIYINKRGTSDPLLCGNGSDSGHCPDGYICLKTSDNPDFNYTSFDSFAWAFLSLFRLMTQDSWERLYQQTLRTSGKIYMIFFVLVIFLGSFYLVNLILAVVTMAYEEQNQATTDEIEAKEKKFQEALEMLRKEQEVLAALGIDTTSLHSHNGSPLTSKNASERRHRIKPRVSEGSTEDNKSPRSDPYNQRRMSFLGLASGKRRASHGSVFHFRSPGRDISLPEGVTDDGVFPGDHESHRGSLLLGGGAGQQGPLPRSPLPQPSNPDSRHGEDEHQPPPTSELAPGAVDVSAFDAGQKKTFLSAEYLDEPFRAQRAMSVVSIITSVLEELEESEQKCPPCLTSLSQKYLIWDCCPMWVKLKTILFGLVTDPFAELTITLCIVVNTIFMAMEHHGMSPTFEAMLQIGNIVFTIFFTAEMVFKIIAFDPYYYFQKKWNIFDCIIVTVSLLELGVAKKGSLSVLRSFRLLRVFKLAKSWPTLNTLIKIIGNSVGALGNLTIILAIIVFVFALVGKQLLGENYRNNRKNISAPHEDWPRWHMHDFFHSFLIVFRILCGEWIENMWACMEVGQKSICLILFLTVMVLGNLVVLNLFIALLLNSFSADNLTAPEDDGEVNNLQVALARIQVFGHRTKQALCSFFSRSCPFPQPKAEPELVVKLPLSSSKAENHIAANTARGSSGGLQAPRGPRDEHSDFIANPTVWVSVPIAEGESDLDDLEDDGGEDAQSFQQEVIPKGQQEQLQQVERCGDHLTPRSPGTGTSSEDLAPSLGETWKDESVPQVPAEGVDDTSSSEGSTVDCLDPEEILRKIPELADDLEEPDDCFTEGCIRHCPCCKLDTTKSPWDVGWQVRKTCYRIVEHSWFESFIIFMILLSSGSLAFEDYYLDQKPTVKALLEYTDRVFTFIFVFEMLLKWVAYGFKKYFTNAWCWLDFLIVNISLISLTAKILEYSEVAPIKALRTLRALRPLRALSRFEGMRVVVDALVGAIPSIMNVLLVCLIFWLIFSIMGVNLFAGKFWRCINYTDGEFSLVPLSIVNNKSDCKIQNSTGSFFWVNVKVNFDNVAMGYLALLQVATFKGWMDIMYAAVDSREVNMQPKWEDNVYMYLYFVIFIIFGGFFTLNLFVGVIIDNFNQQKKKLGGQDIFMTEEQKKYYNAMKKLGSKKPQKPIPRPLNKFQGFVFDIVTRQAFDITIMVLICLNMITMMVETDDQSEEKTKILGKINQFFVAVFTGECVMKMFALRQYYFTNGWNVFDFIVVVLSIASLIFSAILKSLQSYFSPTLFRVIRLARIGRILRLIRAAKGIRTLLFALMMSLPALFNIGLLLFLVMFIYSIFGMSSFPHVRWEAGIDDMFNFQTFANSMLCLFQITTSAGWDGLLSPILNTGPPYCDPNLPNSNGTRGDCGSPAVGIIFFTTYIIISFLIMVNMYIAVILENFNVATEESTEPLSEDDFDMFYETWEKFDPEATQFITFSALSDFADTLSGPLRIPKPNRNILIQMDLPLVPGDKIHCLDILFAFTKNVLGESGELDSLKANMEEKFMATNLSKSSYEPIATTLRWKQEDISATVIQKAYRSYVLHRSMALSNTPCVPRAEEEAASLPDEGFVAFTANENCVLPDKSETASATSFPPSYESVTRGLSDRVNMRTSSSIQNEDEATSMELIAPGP

The target of the assay is Sodium channel protein type 10 subunit alpha (Homo sapiens, UniProt Q9Y5Y9). The assay can be described thus: Electrophysiological Assay. On the procedure:
A capillary glass pipette (BF150-86-10, Sutter Instruments) was pulled into a recording electrode with a micropipette puller (P97, Sutter Instruments). The micromanipulator (MP285, Sutter Instruments) was manipulated under an inverted microscope (IX71, Olympus) to make the recording electrode contact the cell and negative pressure suction was applied to achieve a GQ seal. Then, rapid capacitance compensation was performed, and negative pressure was continued, cell membrane was broken by suction, and whole cell recording mode was formed. Then the slow capacitance was compensated and the membrane capacitance and series resistance were recorded without leakage compensation. When the whole cell recording current was stabilized, dosing was initiated, and the next concentration was detected after acting 5 minutes of each drug concentration. Multiple cells were independently repeated during the recording period. All electrophysiological assays were performed at room temperature. Specifically, 6 concentrations (measuring IC50) or 2 concentrations (preliminary screening) were set for each compound, and the percentage of inhibition of sodium channels was determined by calculating the relative percentage of peak current generated before and after each concentration compound treated cells, and the IC50 value or percentage of inhibition at a specific concentration was calculated using IGOR pro software.
`O=C(Nc1ccc[n+]([O-])c1)c1nc2ccccc2nc1N1CCCC(F)(F)CC1` [US20250115578, KH01] showed a pIC50 of less than 7.00.

As for `O=C(Nc1cc[nH]c(=O)c1)c1nc2ccccc2nc1N1CCCC(F)(F)CC1` [US20250115578, KH03], the pIC50 was less than 8.00.

Take `O=C(Nc1cn[nH]c(=O)c1)c1nc2ccccc2nc1N1CCCC(F)(F)CC1` [US20250115578, KH04]: the pIC50 was 7.18.

By pIC50 is commonly meant the negative decadic logarithm of the IC50, by convention in mol/L.

The values above are taken from BindingDB's records for patent US20250115578 (Chengdu Kanghong Pharmaceutical, 2025).
